The subject of assay [1] is HepG2. The assay can be described thus: Cytotoxicity against human HepG2 cells by SRB assay. Format: cell-based.
Assay [2] relates to A549. The assay can be described thus: Cytotoxicity against human A549 cells by SRB assay. Format: cell-based. For orientation: In SRB staining, fixed cells bind dye roughly in proportion to their protein.
The subject of assay [3] is A549. The assay can be described thus: Anti-invasive activity against human A549 cells assessed as inhibition of cell invasion by transwell invasion assay.
Assay [4] relates to A549. Put plainly: Antimigratory activity against human A549 cells assessed as inhibition of cell migration after 8 to 16 hrs by scratch wound model assay.
Assay [5] concerns the target Aurora kinase B (Homo sapiens, UniProt Q96GD4). The assay can be described thus: Inhibition of Aurora B (unknown origin) using H-LRRASLG substrate by radioisotope-based P81 filter-binding assay.
In assay [6] the target is Platelet-derived growth factor receptor beta (Homo sapiens, UniProt P09619). The assay can be described thus: Inhibition of PDGFRbeta (unknown origin) using poly[Glu:Tyr] (4:1) substrate by radioisotope-based P81 filter-binding assay.
Platelet-derived growth factor receptor beta, sequence (P09619 whole entry): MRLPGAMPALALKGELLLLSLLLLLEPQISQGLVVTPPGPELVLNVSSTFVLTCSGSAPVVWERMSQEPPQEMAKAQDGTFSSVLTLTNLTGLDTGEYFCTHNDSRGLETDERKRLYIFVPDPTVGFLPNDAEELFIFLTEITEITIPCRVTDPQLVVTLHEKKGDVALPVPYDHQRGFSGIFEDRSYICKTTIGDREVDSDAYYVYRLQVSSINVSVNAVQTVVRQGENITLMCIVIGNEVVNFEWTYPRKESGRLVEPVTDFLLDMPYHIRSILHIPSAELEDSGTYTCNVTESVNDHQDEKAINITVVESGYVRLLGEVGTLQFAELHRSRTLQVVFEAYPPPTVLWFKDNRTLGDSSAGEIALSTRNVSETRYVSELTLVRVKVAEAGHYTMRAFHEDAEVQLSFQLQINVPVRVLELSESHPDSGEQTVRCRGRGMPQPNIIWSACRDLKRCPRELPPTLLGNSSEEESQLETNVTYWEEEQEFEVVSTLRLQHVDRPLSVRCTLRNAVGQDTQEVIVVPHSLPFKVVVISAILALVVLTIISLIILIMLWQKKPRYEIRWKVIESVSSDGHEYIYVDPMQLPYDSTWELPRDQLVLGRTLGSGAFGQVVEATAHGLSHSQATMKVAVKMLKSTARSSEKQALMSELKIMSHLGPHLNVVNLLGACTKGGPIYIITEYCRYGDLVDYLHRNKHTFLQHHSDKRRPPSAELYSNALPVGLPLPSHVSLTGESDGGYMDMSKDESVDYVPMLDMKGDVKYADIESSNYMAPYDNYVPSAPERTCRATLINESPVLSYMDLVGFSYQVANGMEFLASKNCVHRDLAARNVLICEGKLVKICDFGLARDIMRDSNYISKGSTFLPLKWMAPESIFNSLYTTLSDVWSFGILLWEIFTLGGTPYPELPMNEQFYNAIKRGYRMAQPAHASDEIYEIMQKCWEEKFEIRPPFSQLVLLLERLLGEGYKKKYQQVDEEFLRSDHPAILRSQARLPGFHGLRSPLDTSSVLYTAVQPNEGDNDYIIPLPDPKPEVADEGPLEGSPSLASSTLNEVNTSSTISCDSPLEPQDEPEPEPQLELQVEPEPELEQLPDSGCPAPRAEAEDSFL
Assay [7] concerns the target T1, Receptor-type tyrosine-protein kinase FLT3 (Homo sapiens, UniProt P36888).
T1 sequence (P36888 whole entry): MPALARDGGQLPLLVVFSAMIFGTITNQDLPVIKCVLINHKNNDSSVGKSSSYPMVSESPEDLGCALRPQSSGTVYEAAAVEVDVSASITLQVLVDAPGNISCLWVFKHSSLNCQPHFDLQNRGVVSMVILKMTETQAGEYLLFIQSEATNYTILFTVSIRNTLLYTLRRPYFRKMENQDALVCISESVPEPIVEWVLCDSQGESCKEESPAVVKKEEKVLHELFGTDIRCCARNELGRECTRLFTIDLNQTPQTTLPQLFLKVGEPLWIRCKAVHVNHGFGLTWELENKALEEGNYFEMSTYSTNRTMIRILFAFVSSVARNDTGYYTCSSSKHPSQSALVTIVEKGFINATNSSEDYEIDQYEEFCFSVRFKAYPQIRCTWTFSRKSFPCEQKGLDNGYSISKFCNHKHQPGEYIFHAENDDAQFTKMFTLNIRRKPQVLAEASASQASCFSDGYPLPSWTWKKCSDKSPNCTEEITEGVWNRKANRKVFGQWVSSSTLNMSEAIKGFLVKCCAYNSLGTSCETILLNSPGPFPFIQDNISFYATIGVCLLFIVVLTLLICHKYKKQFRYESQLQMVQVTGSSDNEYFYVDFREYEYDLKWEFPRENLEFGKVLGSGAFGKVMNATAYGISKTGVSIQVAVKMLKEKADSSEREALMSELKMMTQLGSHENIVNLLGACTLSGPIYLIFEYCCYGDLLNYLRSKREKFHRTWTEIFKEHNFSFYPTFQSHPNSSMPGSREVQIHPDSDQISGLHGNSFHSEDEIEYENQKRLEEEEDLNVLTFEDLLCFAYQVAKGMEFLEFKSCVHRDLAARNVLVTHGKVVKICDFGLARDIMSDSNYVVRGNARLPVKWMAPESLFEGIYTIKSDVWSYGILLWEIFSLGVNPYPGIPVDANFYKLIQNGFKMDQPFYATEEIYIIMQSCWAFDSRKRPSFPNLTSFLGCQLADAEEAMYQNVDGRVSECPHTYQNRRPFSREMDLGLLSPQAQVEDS
Put plainly: Inhibition of Flt3 (unknown origin) using EAIYAAPFAKKK substrate by radioisotope-based P81 filter-binding assay.

Assay [8] has as its target Vascular endothelial growth factor receptor 2 (Homo sapiens, UniProt P35968). The assay can be described thus: Inhibition of VEGFR2 (unknown origin) using poly[Glu:Tyr] substrate by radioisotope-based P81 filter-binding assay.
The target in assay [9] is T2, Aurora kinase C (Homo sapiens, UniProt Q9UQB9).
T2 sequence (Q9UQB9 whole entry): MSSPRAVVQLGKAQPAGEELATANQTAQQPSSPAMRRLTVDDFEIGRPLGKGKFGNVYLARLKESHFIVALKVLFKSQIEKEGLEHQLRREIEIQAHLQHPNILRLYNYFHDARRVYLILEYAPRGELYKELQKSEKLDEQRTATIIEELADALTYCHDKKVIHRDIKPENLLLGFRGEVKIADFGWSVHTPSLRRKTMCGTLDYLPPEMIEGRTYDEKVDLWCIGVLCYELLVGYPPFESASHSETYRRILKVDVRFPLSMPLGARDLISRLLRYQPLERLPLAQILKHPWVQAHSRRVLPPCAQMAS
Put plainly: Inhibition of Aurora C (unknown origin) using H-LRRASLG substrate by radioisotope-based P81 filter-binding assay.

In assay [10] the target is T3, Aurora kinase A (Homo sapiens, UniProt O14965).
T3 sequence (O14965 whole entry): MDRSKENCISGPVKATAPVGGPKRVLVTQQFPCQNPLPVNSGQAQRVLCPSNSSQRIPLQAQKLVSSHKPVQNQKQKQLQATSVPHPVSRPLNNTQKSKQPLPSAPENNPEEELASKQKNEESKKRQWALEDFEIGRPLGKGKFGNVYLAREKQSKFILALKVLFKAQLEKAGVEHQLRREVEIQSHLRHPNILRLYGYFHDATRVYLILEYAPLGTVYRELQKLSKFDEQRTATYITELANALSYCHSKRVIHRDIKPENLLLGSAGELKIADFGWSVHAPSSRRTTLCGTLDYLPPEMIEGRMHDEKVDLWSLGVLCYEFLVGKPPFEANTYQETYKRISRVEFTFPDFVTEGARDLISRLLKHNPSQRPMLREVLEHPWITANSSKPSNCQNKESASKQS
Put plainly: Inhibition of Aurora A (unknown origin) using H-LRRASLG substrate by radioisotope-based P81 filter-binding assay.

Assay [11] addresses Platelet-derived growth factor receptor alpha (Homo sapiens, UniProt P16234). Put plainly: Inhibition of PDGFRalpha (unknown origin) using poly[Glu:Tyr] (4:1) substrate by radioisotope-based P81 filter-binding assay.

Consider 32 compounds from ChEMBL document CHEMBL3351387, “Bioisosteric replacement of an acylureido moiety attached to an indolin-2-one scaffold with a malonamido or a 2/4-pyridinoylamido moiety produces a selectively potent Aurora-B inhibitor” (Eur J Med Chem, 2014).

Aurora kinase B, sequence (Q96GD4 whole entry): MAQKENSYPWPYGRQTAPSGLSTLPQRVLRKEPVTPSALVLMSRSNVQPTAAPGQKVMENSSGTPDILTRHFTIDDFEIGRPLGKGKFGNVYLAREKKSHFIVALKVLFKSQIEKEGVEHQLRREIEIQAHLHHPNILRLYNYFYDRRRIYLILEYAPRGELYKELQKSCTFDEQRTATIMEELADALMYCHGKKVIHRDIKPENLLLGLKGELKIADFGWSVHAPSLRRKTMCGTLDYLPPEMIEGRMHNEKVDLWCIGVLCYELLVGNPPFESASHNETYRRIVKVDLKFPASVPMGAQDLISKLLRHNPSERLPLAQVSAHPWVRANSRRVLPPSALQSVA
Vascular endothelial growth factor receptor 2, sequence (P35968 whole entry): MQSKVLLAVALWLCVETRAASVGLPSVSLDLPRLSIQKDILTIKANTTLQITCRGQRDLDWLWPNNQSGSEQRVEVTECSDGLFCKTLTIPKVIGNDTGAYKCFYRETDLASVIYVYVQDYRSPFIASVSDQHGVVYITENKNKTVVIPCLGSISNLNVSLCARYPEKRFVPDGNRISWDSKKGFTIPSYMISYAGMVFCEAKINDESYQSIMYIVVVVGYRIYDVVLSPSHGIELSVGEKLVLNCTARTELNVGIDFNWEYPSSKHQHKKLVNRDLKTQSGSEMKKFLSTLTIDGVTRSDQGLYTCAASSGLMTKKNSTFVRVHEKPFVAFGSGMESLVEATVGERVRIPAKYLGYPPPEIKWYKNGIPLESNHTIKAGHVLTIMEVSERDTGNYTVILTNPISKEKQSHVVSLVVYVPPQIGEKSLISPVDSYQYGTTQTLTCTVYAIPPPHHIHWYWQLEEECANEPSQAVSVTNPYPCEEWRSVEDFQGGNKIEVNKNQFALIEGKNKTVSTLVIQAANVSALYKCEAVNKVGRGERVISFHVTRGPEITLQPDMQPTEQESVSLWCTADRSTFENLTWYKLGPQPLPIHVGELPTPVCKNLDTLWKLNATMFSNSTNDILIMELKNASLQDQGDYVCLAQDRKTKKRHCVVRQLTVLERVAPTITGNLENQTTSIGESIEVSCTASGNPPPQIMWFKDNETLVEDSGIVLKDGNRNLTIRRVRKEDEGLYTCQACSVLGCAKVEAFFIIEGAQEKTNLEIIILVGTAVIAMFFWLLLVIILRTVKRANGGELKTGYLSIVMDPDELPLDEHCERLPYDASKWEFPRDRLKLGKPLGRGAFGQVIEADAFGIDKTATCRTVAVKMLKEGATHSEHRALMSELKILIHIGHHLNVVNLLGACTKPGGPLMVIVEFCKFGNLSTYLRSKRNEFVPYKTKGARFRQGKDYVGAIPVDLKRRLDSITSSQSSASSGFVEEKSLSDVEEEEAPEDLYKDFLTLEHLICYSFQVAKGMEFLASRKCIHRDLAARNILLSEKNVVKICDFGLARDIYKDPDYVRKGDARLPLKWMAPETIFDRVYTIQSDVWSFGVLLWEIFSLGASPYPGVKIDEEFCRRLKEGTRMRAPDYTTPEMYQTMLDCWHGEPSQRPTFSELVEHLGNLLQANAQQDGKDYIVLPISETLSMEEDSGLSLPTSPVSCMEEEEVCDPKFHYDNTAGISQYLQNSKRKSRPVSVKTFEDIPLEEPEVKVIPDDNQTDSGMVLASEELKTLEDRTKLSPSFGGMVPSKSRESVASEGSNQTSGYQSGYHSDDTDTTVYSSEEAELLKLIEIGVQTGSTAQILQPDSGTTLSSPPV
Platelet-derived growth factor receptor alpha, sequence (P16234 whole entry): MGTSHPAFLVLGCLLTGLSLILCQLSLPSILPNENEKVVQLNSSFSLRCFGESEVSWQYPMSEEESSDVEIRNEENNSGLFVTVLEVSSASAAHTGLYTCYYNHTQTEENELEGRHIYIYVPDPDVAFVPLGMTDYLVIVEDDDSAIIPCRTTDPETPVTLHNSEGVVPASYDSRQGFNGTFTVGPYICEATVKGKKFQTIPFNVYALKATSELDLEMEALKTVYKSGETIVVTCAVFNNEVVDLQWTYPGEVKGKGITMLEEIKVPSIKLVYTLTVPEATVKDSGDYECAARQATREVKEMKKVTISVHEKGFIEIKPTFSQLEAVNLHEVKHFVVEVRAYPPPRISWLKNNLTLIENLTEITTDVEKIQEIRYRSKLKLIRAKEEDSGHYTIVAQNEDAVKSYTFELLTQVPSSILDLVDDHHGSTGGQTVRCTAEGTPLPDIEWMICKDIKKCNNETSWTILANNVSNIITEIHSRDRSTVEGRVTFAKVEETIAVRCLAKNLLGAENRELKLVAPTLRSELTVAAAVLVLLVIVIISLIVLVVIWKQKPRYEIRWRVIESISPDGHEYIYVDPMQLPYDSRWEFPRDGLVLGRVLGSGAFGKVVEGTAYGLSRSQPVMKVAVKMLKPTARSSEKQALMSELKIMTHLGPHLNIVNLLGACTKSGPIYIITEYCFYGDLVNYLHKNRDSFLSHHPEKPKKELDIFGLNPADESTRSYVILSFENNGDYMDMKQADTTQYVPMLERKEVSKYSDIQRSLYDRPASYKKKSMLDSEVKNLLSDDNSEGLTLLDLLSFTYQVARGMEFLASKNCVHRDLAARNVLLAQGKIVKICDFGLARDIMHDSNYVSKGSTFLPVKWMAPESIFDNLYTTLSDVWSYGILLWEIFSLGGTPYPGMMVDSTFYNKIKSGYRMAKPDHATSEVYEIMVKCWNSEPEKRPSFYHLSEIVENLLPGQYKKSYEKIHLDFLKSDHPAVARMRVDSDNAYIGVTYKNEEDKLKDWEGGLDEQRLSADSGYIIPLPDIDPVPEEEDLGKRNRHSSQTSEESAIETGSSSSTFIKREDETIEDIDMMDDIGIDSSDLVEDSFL

Take `Cc1ccc(-c2c[nH]cc(C(=O)Nc3ccc4c(c3)NC(=O)/C4=C\c3ccc[nH]3)c2=O)cc1`: the IC50 in assay [1] was found to be 0.7 µM; in assay [2], 0.5 µM.

On to `COc1ccc(-c2c[nH]cc(C(=O)Nc3ccc4c(c3)NC(=O)/C4=C\c3ccc[nH]3)c2=O)cc1`, for which the results for the IC50 in assay [1] and in assay [2] were 0.8 µM and 0.6 µM, respectively.

Consider `O=C1Nc2cc(NC(=O)c3cccn(-c4ccc(C(F)(F)F)cc4)c3=O)ccc2/C1=C/c1ccc[nH]1`, for which the IC50 in assay [1] was 3.1 µM; in assay [2], 3.7 µM.

Turning to `COc1ccc(-c2c[nH]cc(C(=O)Nc3ccc4c(c3)NC(=O)/C4=C\c3[nH]c(C)c(C(=O)O)c3C)c2=O)cc1`, the IC50 in assay [1] and in [2] was over 10 µM in each case.

As for `O=C1Nc2c(NC(=O)c3cccn(-c4ccc(F)cc4)c3=O)cccc2/C1=C/c1ccc[nH]1`, the IC50 amounted to 3.9 µM in [1] and 4.5 µM in assay [2].

On to `COc1ccc(NC(=O)C2(C(=O)Nc3ccc4c(c3)NC(=O)/C4=C\c3ccc[nH]3)CC2)cc1`, for which the IC50 in [1] was 3.9 µM; in assay [2], 5.9 µM.

On to `O=C1Nc2cc(NC(=O)c3cccn(-c4cccc(Cl)c4)c3=O)ccc2/C1=C/c1ccc[nH]1`, for which the IC50 in assay [1] was 4.9 µM; in [2] it was 1.5 µM.

On to `O=C1Nc2cc(NC(=O)c3cccn(-c4ccccc4)c3=O)ccc2/C1=C/c1ccc[nH]1`, for which the figures for the IC50 in [1] and in [2] were 5.8 µM and 4.7 µM, respectively.

In the case of `O=C1Nc2cc(NC(=O)c3c[nH]cc(-c4cccc(Cl)c4)c3=O)ccc2/C1=C/c1ccc[nH]1`, the IC50 amounted to 0.6 µM in [1] and 0.5 µM in assay [2].

For the compound `CCN(CCO)CCCOc1ccc2c(Nc3cc(CC(=O)Nc4cccc(F)c4)[nH]n3)ncnc2c1` [DEFOSBARASERTIB], the IC50 stood at 0.1 µM in assay [1], 0.1 µM in assay [2], 5.4 µM in assay [3] and 8.3 µM in [4].

Regarding `O=C1Nc2cc(NC(=O)c3c[nH]cc(-c4ccc(Cl)cc4)c3=O)ccc2/C1=C/c1ccc[nH]1`, the IC50 in assay [1] was 0.7 µM; in assay [2], under 0.1 µM.

With `O=C1Nc2cc(NC(=O)c3c[nH]cc(-c4ccccc4)c3=O)ccc2/C1=C/c1ccc[nH]1`, the IC50 in assay [1] was 1.1 µM; in assay [5], 33.1 nM; in assay [2] it was 0.5 µM.

Turning to `Cc1[nH]c(/C=C2\C(=O)Nc3cc(NC(=O)c4c[nH]cc(-c5ccc(F)cc5)c4=O)ccc32)c(C)c1C(=O)N1CCOCC1`, the half-maximal inhibitory concentration (IC50) in assay [1] turned out to be 6.7 µM; in assay [2], 5.8 µM.

Consider `O=C1Nc2cc(NC(=O)c3cccn(-c4ccc(Cl)cc4)c3=O)ccc2/C1=C/c1ccc[nH]1`, for which the IC50 in assay [1] was 6.7 µM; in assay [2], 4.9 µM.

Consider `Cc1[nH]c(/C=C2\C(=O)Nc3cc(NC(=O)c4c[nH]cc(-c5ccc(F)cc5)c4=O)ccc32)c(C)c1CC(=O)N1CCOCC1`, for which the IC50 in assay [1] worked out at 6.7 µM; in assay [2], 5.2 µM.

Regarding `COc1ccc(NC(=O)CC(=O)Nc2ccc3c(c2)NC(=O)/C3=C\c2ccc[nH]2)cc1`, the IC50 in [6] was determined as 177 nM; in assay [7], 16.6 nM; in assay [1], 2.8 µM; in [2] it was 3.8 µM.

`Cc1[nH]c(/C=C2\C(=O)Nc3cc(NC(=O)c4c[nH]cc(-c5ccc(F)cc5)c4=O)ccc32)c(C)c1CC(=O)N1CCN(C)CC1`: the values for the IC50 in assay [1] and in [2] were 0.7 µM and 0.6 µM, respectively.

Take `O=C1Nc2cc(NC(=O)c3cccn(-c4ccc(F)cc4)c3=O)ccc2/C1=C/c1ccc[nH]1`: the IC50 in assay [1] was 0.9 µM; in [2] it was 0.7 µM; in assay [3], over 10 µM; in [4], 7.3 µM.

As for `O=C1Nc2cc(NC(=O)C3(C(=O)Nc4ccc(F)cc4)CC3)ccc2/C1=C/c1ccc[nH]1`, the IC50 in [1] came out at 1 µM; in assay [5] it was 253 nM; in assay [2] it was 0.9 µM.

Consider `O=C1Nc2cc(NC(=O)c3c[nH]cc(-c4ccc(F)cc4)c3=O)ccc2/C1=C/c1ccc[nH]1`, for which the IC50 in assay [1] was determined as 1.4 µM; in assay [2], 0.5 µM; in assay [3], 7.8 µM; in [4], 6.6 µM.

`Cc1[nH]c(/C=C2\C(=O)Nc3cc(NC(=O)c4cccn(C)c4=O)ccc32)c(C)c1C(=O)O`: the IC50 in [1] is 8.1 µM; in assay [2] it was 6.6 µM.

With `O=C1Nc2cccc(NC(=O)c3cccn(-c4ccc(F)cc4)c3=O)c2/C1=C/c1ccc[nH]1`, the IC50 came to 4.6 µM in assay [1] and 4.8 µM in [2].

As to `Cc1c[nH]cc(C(=O)Nc2ccc3c(c2)NC(=O)/C3=C\c2ccc[nH]2)c1=O`, the IC50 in assay [1] is 3.1 µM; in assay [2] it was 5.5 µM.

Turning to `O=C1Nc2ccc(NC(=O)c3cccn(-c4ccc(F)cc4)c3=O)cc2/C1=C/c1ccc[nH]1`, the IC50 in assay [1] and in assay [2] was 5.4 µM throughout.

As to `O=C1Nc2cc(NC(=O)c3cccn(CCO)c3=O)ccc2/C1=C/c1ccc[nH]1`, the IC50 in assay [1] was 3.9 µM; in [2] it was 4.5 µM.

On to `O=C1Nc2cc(NC(=O)c3c[nH]cc(-c4ccc(C(F)(F)F)cc4)c3=O)ccc2/C1=C/c1ccc[nH]1`, for which the values for the IC50 in [1] and in [2] were 0.7 µM and 0.5 µM, respectively.

Turning to `Cc1ccc(-n2cccc(C(=O)Nc3ccc4c(c3)NC(=O)/C4=C\c3ccc[nH]3)c2=O)cc1`, the IC50 was 4.2 µM in assay [1] and 1.6 µM in assay [2].

With `Cn1cccc(C(=O)Nc2ccc3c(c2)NC(=O)/C3=C\c2ccc[nH]2)c1=O`, the IC50 in [1] turned out to be 7 µM; in [2], 5.9 µM.

For `Cc1[nH]c(/C=C2\C(=O)Nc3cc(NC(=O)c4c[nH]cc(-c5ccc(F)cc5)c4=O)ccc32)c(C)c1C(=O)N1CCN(C)CC1`, the IC50 in assay [1] worked out at 0.7 µM; in assay [2], 0.6 µM.

With `COc1ccc(-n2cccc(C(=O)Nc3ccc4c(c3)NC(=O)/C4=C\c3ccc[nH]3)c2=O)cc1`, the IC50 in assay [1] worked out at 5.6 µM; in assay [2], 3.3 µM.

For `Cc1[nH]c(/C=C2\C(=O)Nc3cc(NC(=O)c4cccn(-c5ccc(F)cc5)c4=O)ccc32)c(C)c1C(=O)O`, the IC50 was 6.1 µM in assay [1], 6.3 µM in assay [2], over 10 µM in [3] and 7.9 µM in [4].

For the compound `O=C(CC(=O)Nc1ccc2c(c1)NC(=O)/C2=C\c1ccc[nH]1)Nc1ccc(F)cc1`, the IC50 came out at 1770 nM in assay [8]; 86.9 nM in [6]; 67.2 nM in assay [9]; 11 nM in [7]; 552 nM in [10]; 1.8 µM in [1]. For the same compound, the figures for the half-inhibitory concentration (IC50) in assay [11] and in assay [2] were 7.2 nM and 0.7 µM, respectively.

One may read the IC50 as the concentration that gives 50% inhibition.
